Results taken from article PMC11784639, “Archaeal Signalling Networks—New Insights Into the Structure and Function of Histidine Kinases and Response Regulators of the Methanogenic Archaeon Methanosarcina acetivorans” (Environmental Microbiology, 2025).

How the values were obtained:
MA2082 = target: T1, MA2082 (Methanosarcina acetivorans, UniProt Q8TP40); assay: fluorescence titration with TNP-ATP; type: binding; details: fluorescent ATP analogue; kinase buffer pH 8, 5 mM MgCl2; 541 nm emission
T1 construct: gene MA_2082
T1 sequence (Q8TP40 1-698): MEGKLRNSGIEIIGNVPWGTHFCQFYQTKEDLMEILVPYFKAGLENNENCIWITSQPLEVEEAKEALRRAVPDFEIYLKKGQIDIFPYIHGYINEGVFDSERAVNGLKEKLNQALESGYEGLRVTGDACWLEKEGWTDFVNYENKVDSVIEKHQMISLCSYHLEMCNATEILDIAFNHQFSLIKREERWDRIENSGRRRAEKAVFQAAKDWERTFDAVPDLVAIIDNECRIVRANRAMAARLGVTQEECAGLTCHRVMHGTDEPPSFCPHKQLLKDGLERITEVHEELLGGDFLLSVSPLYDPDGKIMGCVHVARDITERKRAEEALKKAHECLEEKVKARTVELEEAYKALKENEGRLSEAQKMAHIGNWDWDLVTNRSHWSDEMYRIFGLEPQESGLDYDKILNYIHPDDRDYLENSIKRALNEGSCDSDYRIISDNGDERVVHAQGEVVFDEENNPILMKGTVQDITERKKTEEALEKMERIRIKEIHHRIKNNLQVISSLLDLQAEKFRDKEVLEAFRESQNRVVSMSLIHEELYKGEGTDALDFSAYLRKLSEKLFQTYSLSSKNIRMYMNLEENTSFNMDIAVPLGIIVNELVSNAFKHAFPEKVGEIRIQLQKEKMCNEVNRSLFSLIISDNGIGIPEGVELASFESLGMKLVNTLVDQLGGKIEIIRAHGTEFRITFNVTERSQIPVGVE

RdmS (MA0863) = target: T2, RdmS (MA0863) (Methanosarcina acetivorans, UniProt Q8TSD5); assay: fluorescence titration with TNP-ATP; type: binding; details: fluorescent ATP analogue; kinase buffer pH 8, 5 mM MgCl2; 541 nm emission
T2 construct: gene MA_0863
T2 sequence (Q8TSD5 1-749): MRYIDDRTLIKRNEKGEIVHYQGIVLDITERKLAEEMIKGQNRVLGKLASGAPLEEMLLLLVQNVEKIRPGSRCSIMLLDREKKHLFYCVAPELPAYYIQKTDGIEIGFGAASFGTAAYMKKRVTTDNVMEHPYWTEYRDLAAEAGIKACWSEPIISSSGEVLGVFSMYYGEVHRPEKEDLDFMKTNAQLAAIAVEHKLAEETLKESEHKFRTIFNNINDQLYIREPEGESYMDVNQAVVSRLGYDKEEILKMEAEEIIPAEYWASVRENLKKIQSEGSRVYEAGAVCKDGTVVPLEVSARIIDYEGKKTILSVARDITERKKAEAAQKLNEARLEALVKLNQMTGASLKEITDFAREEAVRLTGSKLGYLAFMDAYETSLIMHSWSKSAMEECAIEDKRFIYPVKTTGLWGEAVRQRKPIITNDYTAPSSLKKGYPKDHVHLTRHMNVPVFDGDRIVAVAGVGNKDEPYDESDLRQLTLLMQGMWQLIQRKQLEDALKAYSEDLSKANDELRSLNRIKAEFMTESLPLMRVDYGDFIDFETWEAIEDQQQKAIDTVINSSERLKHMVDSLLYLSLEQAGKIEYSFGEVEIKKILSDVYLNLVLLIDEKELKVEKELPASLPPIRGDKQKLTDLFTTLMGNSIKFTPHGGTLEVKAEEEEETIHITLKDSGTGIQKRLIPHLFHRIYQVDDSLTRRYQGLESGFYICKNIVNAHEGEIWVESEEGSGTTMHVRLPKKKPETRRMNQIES

PKR1R2 = target: T3, PKR1R2 (Methanosarcina acetivorans, UniProt Q8THY1); assay: fluorescence titration with TNP-ATP; type: binding; details: fluorescent ATP analogue; kinase buffer pH 8, 5 mM MgCl2; 541 nm emission
T3 construct: gene MA_4377; cytosolic truncation PAS-HK-R1-R2 without CHASE4 and HAMP (membrane) part
T3 sequence (Q8THY1 351-1028 limits assumed): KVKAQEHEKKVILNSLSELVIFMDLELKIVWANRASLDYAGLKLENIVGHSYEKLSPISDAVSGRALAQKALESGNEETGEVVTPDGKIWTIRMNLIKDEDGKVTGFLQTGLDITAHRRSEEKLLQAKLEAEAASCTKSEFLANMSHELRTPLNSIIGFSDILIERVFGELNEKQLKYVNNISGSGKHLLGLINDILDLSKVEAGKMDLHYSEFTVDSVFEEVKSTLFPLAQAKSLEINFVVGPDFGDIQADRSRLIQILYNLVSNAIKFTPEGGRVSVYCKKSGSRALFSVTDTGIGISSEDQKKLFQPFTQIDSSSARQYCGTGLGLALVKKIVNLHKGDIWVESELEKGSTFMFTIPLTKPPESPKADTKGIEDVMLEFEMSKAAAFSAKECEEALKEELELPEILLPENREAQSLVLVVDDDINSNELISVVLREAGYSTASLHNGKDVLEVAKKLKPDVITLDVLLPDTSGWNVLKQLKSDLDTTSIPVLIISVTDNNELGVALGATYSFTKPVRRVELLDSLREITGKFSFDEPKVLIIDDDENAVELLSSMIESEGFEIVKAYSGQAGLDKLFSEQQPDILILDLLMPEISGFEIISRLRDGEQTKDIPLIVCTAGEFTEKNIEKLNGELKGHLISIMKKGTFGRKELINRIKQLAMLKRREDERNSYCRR

MA4377 (full-length) = target: T4, MA4377 (full-length) (Methanosarcina acetivorans, UniProt Q8THY1); assay: fluorescence titration with TNP-ATP; type: binding; details: fluorescent ATP analogue; kinase buffer pH 8, 5 mM MgCl2; 541 nm emission
T4 construct: gene MA_4377
T4 sequence (Q8THY1 1-1028): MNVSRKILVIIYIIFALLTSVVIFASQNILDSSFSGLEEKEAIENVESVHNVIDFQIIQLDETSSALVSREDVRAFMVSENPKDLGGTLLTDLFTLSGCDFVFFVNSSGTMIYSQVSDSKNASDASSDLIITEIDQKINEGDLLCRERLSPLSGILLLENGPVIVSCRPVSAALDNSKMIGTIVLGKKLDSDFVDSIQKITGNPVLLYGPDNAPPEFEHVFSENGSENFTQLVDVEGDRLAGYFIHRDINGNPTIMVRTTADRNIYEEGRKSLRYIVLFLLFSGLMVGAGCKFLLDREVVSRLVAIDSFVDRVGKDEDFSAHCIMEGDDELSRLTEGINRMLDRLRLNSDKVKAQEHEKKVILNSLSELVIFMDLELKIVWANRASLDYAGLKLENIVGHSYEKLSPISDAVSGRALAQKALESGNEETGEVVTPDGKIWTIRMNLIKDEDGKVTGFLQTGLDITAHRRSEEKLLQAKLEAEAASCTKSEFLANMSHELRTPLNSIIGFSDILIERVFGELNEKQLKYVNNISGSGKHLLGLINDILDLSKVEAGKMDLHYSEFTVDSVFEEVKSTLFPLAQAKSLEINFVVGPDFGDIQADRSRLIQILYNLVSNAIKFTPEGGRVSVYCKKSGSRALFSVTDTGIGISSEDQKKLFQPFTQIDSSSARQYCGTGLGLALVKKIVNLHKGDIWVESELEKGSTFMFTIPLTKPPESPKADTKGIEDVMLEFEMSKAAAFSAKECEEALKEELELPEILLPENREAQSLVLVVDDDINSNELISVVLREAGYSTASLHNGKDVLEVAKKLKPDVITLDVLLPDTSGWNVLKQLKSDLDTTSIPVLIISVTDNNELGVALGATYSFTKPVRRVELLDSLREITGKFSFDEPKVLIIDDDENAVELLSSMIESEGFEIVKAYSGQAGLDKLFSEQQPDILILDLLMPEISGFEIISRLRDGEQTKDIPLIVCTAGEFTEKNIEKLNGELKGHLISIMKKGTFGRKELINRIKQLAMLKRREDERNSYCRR

MA2013 = target: T5, MA2013 (Methanosarcina acetivorans, UniProt Q8TPA1); assay: fluorescence titration with TNP-ATP; type: binding; details: fluorescent ATP analogue; kinase buffer pH 8, 5 mM MgCl2; 541 nm emission
T5 construct: gene MA_2013
T5 sequence (Q8TPA1 1-1000): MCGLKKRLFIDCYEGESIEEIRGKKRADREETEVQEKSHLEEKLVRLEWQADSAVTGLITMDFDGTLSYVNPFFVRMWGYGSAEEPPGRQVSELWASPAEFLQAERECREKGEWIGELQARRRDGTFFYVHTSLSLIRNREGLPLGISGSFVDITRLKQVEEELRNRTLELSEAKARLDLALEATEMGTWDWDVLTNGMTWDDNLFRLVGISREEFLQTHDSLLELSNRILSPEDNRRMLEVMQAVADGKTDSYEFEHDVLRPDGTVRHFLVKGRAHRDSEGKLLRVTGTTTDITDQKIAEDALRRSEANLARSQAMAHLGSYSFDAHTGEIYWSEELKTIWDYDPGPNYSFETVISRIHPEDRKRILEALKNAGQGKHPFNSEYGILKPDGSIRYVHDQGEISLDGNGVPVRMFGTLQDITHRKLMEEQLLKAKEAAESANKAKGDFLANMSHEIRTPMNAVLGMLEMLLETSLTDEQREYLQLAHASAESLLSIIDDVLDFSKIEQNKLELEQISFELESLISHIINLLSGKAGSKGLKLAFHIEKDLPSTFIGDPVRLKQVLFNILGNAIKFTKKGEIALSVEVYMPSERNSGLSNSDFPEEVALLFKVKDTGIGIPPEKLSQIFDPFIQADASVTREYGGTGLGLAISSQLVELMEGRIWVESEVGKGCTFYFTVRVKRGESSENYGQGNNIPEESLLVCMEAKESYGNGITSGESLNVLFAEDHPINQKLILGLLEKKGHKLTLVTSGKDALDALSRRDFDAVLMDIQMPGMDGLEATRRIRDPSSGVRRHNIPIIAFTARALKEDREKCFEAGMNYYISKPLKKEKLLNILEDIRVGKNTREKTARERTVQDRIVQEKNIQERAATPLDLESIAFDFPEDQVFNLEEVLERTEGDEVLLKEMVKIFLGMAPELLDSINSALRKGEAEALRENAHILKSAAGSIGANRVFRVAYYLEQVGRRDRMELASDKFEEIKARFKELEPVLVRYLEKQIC

PK = target: T6, PK (Methanosarcina acetivorans, UniProt Q8THY1); assay: autophosphorylation, SDS-PAGE autoradiography; type: biochemical; details: labelled compound ([γ-32P]ATP 3.3 μM) with 200 μM ATP; 10 μM kinase; kinase buffer pH 8, 5 mM MgCl2
T6 construct: gene MA_4377; PAS and HK domains only (no CHASE4, HAMP, R1, R2)
T6 sequence (Q8THY1 351-765 limits assumed): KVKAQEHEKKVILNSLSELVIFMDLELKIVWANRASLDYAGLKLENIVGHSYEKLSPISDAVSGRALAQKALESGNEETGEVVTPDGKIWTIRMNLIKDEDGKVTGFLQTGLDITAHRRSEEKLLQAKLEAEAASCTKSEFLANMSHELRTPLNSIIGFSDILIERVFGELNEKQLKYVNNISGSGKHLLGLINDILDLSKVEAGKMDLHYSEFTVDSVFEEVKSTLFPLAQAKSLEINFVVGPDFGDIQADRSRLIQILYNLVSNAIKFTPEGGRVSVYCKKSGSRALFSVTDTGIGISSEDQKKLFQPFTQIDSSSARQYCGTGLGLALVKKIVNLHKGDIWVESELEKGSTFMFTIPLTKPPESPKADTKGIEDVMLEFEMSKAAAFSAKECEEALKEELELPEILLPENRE

| Molecule | Kd (MA2082) | Kd (RdmS (MA0863)) | Kd (PKR1R2) | Kd (MA4377 (full-length)) | Kd (MA2013) | autophosphorylation, SDS-PAGE autoradiography (PK) |
| --- | --- | --- | --- | --- | --- | --- |
| 2′‐(3′)‐O‐(2,4,6‐trinitrophenyl)‐adenosin 5′‐triphosphat [TNP-ATP] | 29.6 ± 4.4 µM | 17 ± 5.7 µM | ~11 µM | ~11 µM | 28.2 ± 1.3 µM | – |
| Nc1ncnc2c1ncn2[C@@H]1O[C@H](COP(=O)(O)OP(=O)(O)OP(=O)(O)O)[C@@H](O)[C@H]1O [ATP] | – | – | – | – | – | indeed displayed time‐dependent autokinase activity |
